Measurements as given in PubChem BioAssay AID504740 (National Center for Advancing Translational Sciences (NCATS), 2011).

Test system: mouse plasma stability, LC-MS/MS, 48 h
Test: Inhibitors of Bloom's syndrome helicase: Mouse Plasma Stability Profiling
Settings: at 2 µM; active compounds read high
Description: Survival of cells and the faithful propagation of the genome depend on elaborate mechanisms of detecting and repairing DNA damage. Treatment of advanced cancer relies on radiation therapy or chemotherapy, which kill cancer cells by causing extensive DNA damage. It is often found, that cancer cells develop resistance to therapy through enhanced activity of DNA repair functions; this has led to an increased interest in developing drugs that interfere with DNA repair, which could sensitize cancer cells to conventional therapy. Bloom syndrome helicase (BLM), is important in resolving abnormal DNA structures formed during replication or homologous recombination. Shutting down the expression of BLM leads to chromosomal instability and higher radiation sensitivity in cultured cells. After the completion of a qHTS campaign, secondary assays, and rounds of medicinal chemistry, a compound was identified to be further characterized through in vitro ADME assays. The stability of the lead compound in mouse plasma is tested because this parameter has a significant impact on many ADME-concerned properties of drugs, such as uptake, distribution, transport, and bioavailability. […]
2uM of compound is incubated in mouse plasma; the reference compound is procaine. Compounds are incubated at 37 deg C for the pre-determined time periods and the when aliquots are removed. Samples are analyzed with LC-MS/MS.

## O=C(Nc1ccc(F)c(C(F)(F)F)c1)Nc1nnc(-c2ccncc2)s1
  percent remaining: 100%
